Where two headings read alike, the source gives them in different places.
Assays:
2D6 = 2D6 (Homo sapiens, UniProt P10635); details: FDA, 2017; Swissmedic, 2020; cited from earlier work
healthy subjects [1] = test: 5 Dimensions of Altered States of Consciousness Scale (5D-ASC); format: in vivo, human; details: escitalopram 14 days pretreatment vs placebo
From the text: (§1) Treatment order was random and counterbalanced.
5-Dimensional Altered States of Consciousness (5D-ASC): The 5-dimensional Altered States of Consciousness (5D-ASC) Scale is a visual analog scale consisting of 94 items (Dittrich, 1998; Studerus et al., 2010). The instrument contains five main scales (FIG. 17) and 11 newer subscales (FIG. 18) assessing mood, anxiety, derealization, depersonalization, changes in perception, auditory alterations, and reduced vigilance. The scale is well-validated (Studerus et al., 2010). The total ASC score is the sum of the three main dimensions/scales Oceanic Boundlessness (OB), Anxious Ego Dissolution (AED) and Visionary Restructuralization (VR). There are two additional main scales measuring Auditory Alterations (AA) and Vigilance Reduction (VIR) (FIG. 17). The 5D-ASC scale was administered once at the end of the session and subjects were instructed to retrospectively rate peak alterations that have been experienced during the study session. Each item of the scale is scored on a 0-100 mm VAS. The attribution of the individual items to the subscales of the 5D-ASC was analyzed according to (Dittrich, 1998; Studerus et al., 2010) and as shown in FIG. 18. The scale was be administered once at the end of each test session.

healthy subjects [2] = test: Adverse effects (list of complaints) and adverse events; format: in vivo, human
Method: as §1
Adverse effects (list of complaints): The list of complaints (LC) consists of 66 items offering a global score measuring physical and general discomfort (Zerssen, 1976). This scale yields a total adverse effects score and reliably measures physical and general discomfort. The LC list was administered 7 hours after administration of the drug with reference to complaints throughout the entire session.

[3] = Plasma drug concentrations and pharmacokinetic analyses; format: in vivo, human; details: for concentration at 14 days: human, in vivo
Method: The blood samples were immediately centrifuged, and the plasma was subsequently stored at −80° C. until analysis.
This allows to determine the concentrations of unconjugated psilocin and of psilocin glucuronide which corresponds to the difference between samples that were incubated with and without glucuronidase.

[4] = any time during escitalopram pretreatment
[5] = escitalopram 14 days pretreatment vs placebo

Sequence of 2D6 (P10635 whole entry): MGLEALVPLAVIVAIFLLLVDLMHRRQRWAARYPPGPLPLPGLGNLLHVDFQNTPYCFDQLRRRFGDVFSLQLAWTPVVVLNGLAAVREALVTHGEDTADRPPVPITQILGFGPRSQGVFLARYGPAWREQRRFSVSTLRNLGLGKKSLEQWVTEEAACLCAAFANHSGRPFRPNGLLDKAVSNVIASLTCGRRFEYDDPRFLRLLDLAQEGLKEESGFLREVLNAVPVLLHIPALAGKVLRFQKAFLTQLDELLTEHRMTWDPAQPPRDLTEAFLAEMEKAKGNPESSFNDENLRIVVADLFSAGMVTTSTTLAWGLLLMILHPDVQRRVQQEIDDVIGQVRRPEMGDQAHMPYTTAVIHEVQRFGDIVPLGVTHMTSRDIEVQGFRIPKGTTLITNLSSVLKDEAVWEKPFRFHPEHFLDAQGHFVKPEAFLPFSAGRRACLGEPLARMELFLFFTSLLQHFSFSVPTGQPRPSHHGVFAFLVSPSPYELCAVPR

CN(C)CCC[C@@]1(c2ccc(F)cc2)OCc2cc(C#N)ccc21 [Escitalopram, escitalopram]
inhibition of 2D6 function (2D6): slightly inhibits | effect on psilocybin-induced anxiety in the 5D-ASC (healthy subjects [1]; P=0.026): significantly reduced | effect on psilocybin-induced anxious ego dissolution in the 5D-ASC (healthy subjects [1]; P=0.029): significantly reduced | adverse events during pretreatment: bruxism (healthy subjects [2]; [4]): 2 subjects | adverse events during pretreatment: decreased libido (healthy subjects [2]; [4]): 5 subjects | adverse events during pretreatment: diarrhea (healthy subjects [2]; [4]): 2 subjects | adverse events during pretreatment: difficulty concentrating (healthy subjects [2]; [4]): 1 subjects | adverse events during pretreatment: dizziness (healthy subjects [2]; [4]): 2 subjects | adverse events during pretreatment: dysorgasmia (healthy subjects [2]; [4]): 2 subjects | adverse events during pretreatment: feeling depressed (healthy subjects [2]; [4]): 3 subjects | adverse events during pretreatment: headache (healthy subjects [2]; [4]): 6 subjects | adverse events during pretreatment: increased appetite (healthy subjects [2]; [4]): 2 subjects | adverse events during pretreatment: insomnia (healthy subjects [2]; [4]): 2 subjects | adverse events during pretreatment: loss of appetite (healthy subjects [2]; [4]): 3 subjects | adverse events during pretreatment: nausea (healthy subjects [2]; [4]): eight | adverse events during pretreatment: restless legs (healthy subjects [2]; [4]): 2 subjects | adverse events during pretreatment: tiredness (healthy subjects [2]; [4]): 6 subjects | adverse events during pretreatment: visual disturbance (healthy subjects [2]; [4]): 1 subjects | effect on other adverse effects of psilocybin (healthy subjects [2]; escitalopram pretreatment compared with placebo pretreatment (summary)): significantly reduced | severe adverse event (symptomatic vertebral disc hernia) (healthy subjects [2]; participant on escitalopram pretreatment, five days, prior to psilocybin): one | peak plasma concentrations (mean, range) ([3]; after 14 days escitalopram (10 mg 7 days, 20 mg 7 days)): 41 (35-53) ng/mL | effect on the pharmacokinetics of 4-HIAA [3, 5]: did not relevantly or significantly alter | effect on the pharmacokinetics of psilocin [3, 5]: did not relevantly or significantly alter | effect on the pharmacokinetics of psilocin glucuronide [3, 5]: did not relevantly or significantly alter | concentration at 14 days ([3]; after 14 days escitalopram (10 mg 7 days, 20 mg 7 days), read-out: plasma concentrations (mean, range)): 41 ng/mL | concentration at 14 days ([3]; after 14 days escitalopram, described as high, read-out: plasma concentrations in all subjects): < 35 ng/mL
